Measured values from ChEMBL document CHEMBL3046351, “Insecticidal, antifeedant and antifungal activities of two glucosides isolated from the seeds of Simmondsia chinensis” (Ind Crops Prod, 2007).
Converted amounts (≈) assume the structure as drawn.

Key:
[1] = system: Rhizoctonia solani; experiment: Antifungal activity against Rhizoctonia solani; type: functional, organism-based
[2] = system: Spodoptera littoralis; experiment: Insecticidal activity against third instar larvae of topically treated Spodoptera littoralis assessed per larva after 24 hr; type: functional
[3] = system: Globisporangium debaryanum; experiment: Antifungal activity against Pythium debaryanum by radial growth inhibition method; type: functional, organism-based
[4] = system: Rhizoctonia solani; experiment: Antifungal activity against Rhizoctonia solani by radial growth inhibition method; type: functional, organism-based
[5] = system: Spodoptera littoralis; experiment: Antifeedant activity against third instar larvae of Spodoptera littoralis fed on compound-treated cotton leaf disks assessed as antifeedant index at 10 ug/ml measured after 24 hr by no-choice leaf disc method; type: functional
[6] = system: Fusarium oxysporum; experiment: Antifungal activity against Fusarium oxysporum by radial growth inhibition method; type: functional, organism-based
[7] = system: Spodoptera littoralis; experiment: Antifeedant activity against third instar larvae of Spodoptera littoralis fed on compound-treated cotton leaf disks assessed as antifeedant index at 100 ug/ml measured after 24 hr by no-choice leaf disc method; type: functional
[8] = system: Spodoptera littoralis; experiment: Antifeedant activity against third instar larvae of Spodoptera littoralis fed on compound-treated castor bean leaf disks measured after 24 hr by no-choice leaf disc method
[9] = system: Spodoptera littoralis; experiment: Antifeedant activity against third instar larvae of Spodoptera littoralis fed on compound-treated castor bean leaf disks assessed as antifeedant index at 1000 ug/ml measured after 24 hr by no-choice leaf disc method
[10] = system: Botrytis fabae; experiment: Antifungal activity against Botrytis fabae by radial growth inhibition method; type: functional, organism-based
[11] = system: Spodoptera littoralis; experiment: Antifeedant activity against third instar larvae of Spodoptera littoralis fed on compound-treated castor bean leaf disks assessed as antifeedant index at 500 ug/ml measured after 24 hr by no-choice leaf disc method
[12] = system: Spodoptera littoralis; experiment: Antifeedant activity against third instar larvae of Spodoptera littoralis fed on compound-treated cotton leaf disks assessed as antifeedant index at 50 ug/ml measured after 24 hr by no-choice leaf disc method; type: functional

Which EC50 [1] does the source give for `CC1(C)C2CCC1(C)C(O)C2` (stereo not drawn) [BORNEOL] here?
Its EC50 is 447 µg/mL (≈ 2900 µM).

For `CC12CCC(CC1=O)C2(C)C` (stereo not drawn) [CAMPHOR], which EC50 [1] is on record?
The EC50 was 488 µg/mL (≈ 3210 µM).

Which EC50 [1] does the source give for `Cc1ccc(C(C)C)cc1O` [CARVACROL] here?
Its EC50 is 41 µg/mL (≈ 273 µM).

`C=C(C)C1CC=C(C)[C@@H](O)C1` (stereo partly drawn) [CARVEOL] was tested. Which EC50 [1] did it give?
Its EC50 is 92 µg/mL (≈ 604 µM).

How did the LD50 [2] turn out when `CCOP(=S)(OCC)Oc1nc(Cl)c(Cl)cc1Cl` [CHLORPYRIFOS] was run?
Its LD50 is 0.12 µg.

Which EC50 [1] does the source give for `O=C/C=C/c1ccccc1` [CINNAMALDEHYDE] here?
Its EC50 is 169 µg/mL (≈ 1280 µM).

Which results are given for `COc1cc(/C=C\C(=O)O[C@@H]2[C@@H](O[C@@H]3C[C@H](OC)[C@H](OC)[C@@H](O)/C3=C/C#N)O[C@@H](CO)[C@H](O)[C@H]2O)ccc1O` [SIMMONDSIN 2'-FERULATE]?
EC50 [3]: 154 µg/mL (≈ 279 µM); LD50 [2]: 2.58 µg; EC50 [4]: 146 µg/mL (≈ 265 µM); AFI [5]: 32.3%; EC50 [6]: 293 µg/mL (≈ 532 µM); AFI [7]: 60.9%; Activity [8]: Dose-dependent effect; AFI [9]: 90%; EC50 [10]: 146 µg/mL (≈ 265 µM); AFI [11]: 76.9%; AFI [12]: 44.2%

`CO[C@H]1[C@@H](OC)C[C@@H](O[C@H]2O[C@@H](CO)[C@H](O)[C@@H](O)[C@@H]2O)/C(=C\C#N)[C@@H]1O` [SIMMONDSIN] was tested. Which EC50 [3] did it give?
The EC50 was 147 µg/mL (≈ 391 µM).

And the LD50 [2]?
The LD50 was 1.49 µg.

What about the EC50 [4] of the same molecule?
Its EC50 is 129 µg/mL (≈ 344 µM).

And the AFI [5]?
The AFI was 38.1%.

What about the EC50 [6] of the same molecule?
Its EC50 is 223 µg/mL (≈ 595 µM).

And the AFI [7]?
The AFI was 63.4%.

And the Activity [8]?
The Activity was “Dose-dependent effect”.

And the AFI [9]?
Its AFI is 92.1%.

What about the EC50 [10] of the same molecule?
Its EC50 is 116 µg/mL (≈ 310 µM).

What about the AFI [11] of the same molecule?
The AFI was 78.9%.

And the AFI [12]?
The AFI was 46.2%.

For `Cc1ccc(C(C)C)c(O)c1` [THYMOL], which EC50 [1] is on record?
Its EC50 is 4 µg/mL (≈ 26.6 µM).

For `COP(=S)(OC)Oc1c(Cl)cc(C)cc1Cl` [TOLCOFOS-METHYL], which EC50 [3] is on record?
Its EC50 is 8.9 µg/mL (≈ 29.6 µM).

What about the EC50 [4] of the same molecule?
Its EC50 is 5.7 µg/mL (≈ 18.9 µM).

And the EC50 [6]?
Its EC50 is 51.3 µg/mL (≈ 170 µM).

And the EC50 [10]?
The EC50 was 21.9 µg/mL (≈ 72.7 µM).
